Reference: patent EP3124027A1, “TRIPHENYLPHOSPHONIUM SALTS FOR USE IN CANCER THREAPY” (Centrum Badan Molekularnych I Makromolekularnych Polskiej …, priority 2015, dated 2017)
Read-outs that look alike come from different tables or passages of the source.

Legend:
[1] = system: HeLa cells (cervical carcinoma); experiment: MTT cytotoxicity test on adherent HeLa cells; format: cell-based, human; conditions: for cytotoxicity, times greater in relation to the salt Fh3P^+C5H11 I^-: HeLa cells after 48 h; for IC50: Homo sapiens, HeLa
Procedure: (§1) Compound 1, where R = ethyl, X = I (formula 1a) and the compound 1 where R = n-octyl, and X = I (formula 1b, were tested for cytotoxic properties on two representatives of human tumor cells: adherent HeLa cells (cervical carcinoma) and suspension K562 cells (chronic myelogenous leukemia). The cytotoxicity of the test compounds was determined with the MTT test in which the yellow tetrazolium salt is reduced by dehydrogenase in the mitochondria of living cells into a purple formazan. 1.HeLa or K562 cells were seeded in 96-well plates in the amount of seven thousand cells/well in 200 µL of culture medium. Cells were incubated overnight in an incubator (37 °C, 5% CO2) 2. The tested compound was added to the cells to yield the following final concentrations in the cell culture: 1 mM, 10 µM, 100 nM, 1 nM. Cells treated with 1% DMSO served as the control with 100% viability. 3. After 24 h or 48 h incubation of HeLa or K562 cells with test compounds, 25 µL of MTT (5 mg / mL) was added to each well. MTT, a yellow tetrazolium salt is reduced to purple formazan by mitochondrial dehydrogenases of living cells, the quantity of which can be determined spectrophotometrically. Cells were incubated with MTT for two hours in an incubator (37 ° C, 5% CO2). Next, lysis buffer containing SDS and DMF was added (95 µL / well). Cells were lysed overnight at 37 ° C, 5% CO2. 4. The absorbance of each well was read on FLUOstar Omega reader at the wave length of 570 and 650 nm. The absorbance measured at 570 nm is proportional to the number of viable cells. The viability of the cells was calculated for each concentration of the test compound. The IC50 values were read from the dose - viability plots by interpolation to 50% cell survival. 5.The results indicating the strong toxicity of both, compound 1a and compound 1b to the adherent HeLa cells and suspension K562 cells are shown in Tables 1 and 2.
(§2) The compound of formula 1c was tested for cytotoxic properties on two human cell lines using the MTT assay (yellow tetrazolium salt transformed by dehydrogenase in the mitochondria of living cells into the purple formazan). The tests were performed on HeLa (cervical carcinoma) and K562 (chronic myelogenous leukemia) cells.
(§3) (Experimental protocol as in Example I).

[2] = system: cervical carcinoma HeLa cells and chronic myelogenous leukemia K562 cells; experiment: MTT cytotoxicity, summary ranges over HeLa and K562 cells; format: cell-based; conditions: Homo sapiens, read-out: IG50 (the source's name)
Procedure: as §1, with “After 24 h or 48 h incubation of HeLa or K562 cells with test compounds, 25 µL of MTT (5 mg / mL) was added to each well.” left out

[3] = system: K562 cells (chronic myelogenous leukemia); experiment: MTT cytotoxicity test on suspension K562 cells; format: cell-based, human; conditions: for fold decrease of IC50 after 48 h compared to IC50 after 24h: K562 cells; for cytotoxicity, times greater in relation to the salt Fh3P^+C5H11 I^-: K562 cells after 48 h
Procedure: as §1, §2, §3

[4] = system: cervical carcinoma cells (HeLa); conditions: after 24 h, PL395749; cited from earlier work
[5] = system: K562 cells; conditions: K562, 24 h; PL395749; cited from earlier work
[6] = system: K562 and HeLa cells; conditions: PL395749, cited from earlier work
[7] = system: HeLa cells; conditions: read-out: cytotoxicity EC50; cited from earlier work
[8] = Homo sapiens, K562, 24 h, read-out: IC50
[9] = Homo sapiens, K562, 48 h, read-out: IC50

SMILES | cytotoxicity, times greater in relation to the salt Fh3P^+C5H11 I^- [1] | IC50 ([1]; 24h, read-out: IC50) [µM] | IC50 ([1]; 48h, read-out: IC50) [µM] | IC50 ([2]; after 4 h (so in the source)) [µM] | IC50 ([2]; after 48 hrs) [µM] | IC50 [3, 8] [µM] | IC50 [3, 9] [µM] | fold decrease of IC50 after 48 h compared to IC50 after 24h [3] | cytotoxicity, times greater in relation to the salt Fh3P^+C5H11 I^- [3] [times] | also measured
CCCCCCCCCC[P+](c1ccccc1)(c1ccccc1)c1ccccc1.[I-] [Compound 1a, n-decyltriphenylphosphonium iodide] | 12-15 times | 7 | 5 | 2 to 7 | 0.5 to 5 | 3 | 0.5 | six | 12 | 
CCCCCCCCCCCCCCCC[P+](c1ccccc1)(c1ccccc1)c1ccccc1.[I-] [Compound 1b, triphenyl-n-hexadecylphosphonium iodide] | 12-15 times | 5 | 4 | 2 to 7 | 0.5 to 5 | 2 | 0.5 | four | 12 | 
BrCc1ccc(-c2ccc(C[P+](c3ccccc3)(c3ccccc3)c3ccccc3)cc2)cc1 [Compound 1c] |  |  |  |  |  |  |  |  |  | IC50 ([1]; 48 h (Table 2, compound 1c), read-out: IC50 48 h): 30 µM; IC50 ([3]; Homo sapiens, K562, 48 h, K562, 48 h (Table 2, compound 1c), read-out: IC50 48 h): 6 µM; IC50 ([3]; K562, 48 h (Table 2, compound 1c), read-out: IC50 48 h): 5 µM
CCCCC[P+](c1ccccc1)(c1ccccc1)c1ccccc1 [Compound C5] |  |  |  |  |  |  |  |  |  | IC50 [4]: 90 µM; IC50 [5]: 50 µM; IC50 ([6]; after 24 h): 50 to 90 µM; IC50 ([6]; second value for C5, printed after 24 h): 6 to 60 µM
CCCCCCCCCCCCCC[P+](CCCCCC)(CCCCCC)CCCCCC.O=S(=O)([N-]S(=O)(=O)C(F)(F)F)C(F)(F)F [tri-n-hexyl(tetradecyl)phosphonium bis(trifluoromethylsulfonyl) imide] |  |  |  |  |  |  |  |  |  | EC50 [7]: 80 µM
